The NIST ThermoML archive (doi:10.1016/j.jct.2016.08.001)

Experiments:
[1] = refractive index (Na D-line) (dimensionless); xn = mol fraction of the nth substance listed; details: 100 kPa, Liquid, Standard Abbe refractometry
[2] = xn = mol fraction of the nth substance listed; details: 100 kPa, Liquid; for speed of sound: Frequency=3 MHz, Sing-around technique in a fixed-path interferometer; for mass density: Vibrating tube method

O=Cc1ccccc1 [benzaldehyde] + CCOC(=O)OCC
Details	mass density, [2] [kg/m3]	refractive index, [1]	speed of sound, [2] [m/s]
298.15 K, x2 = 0	1041	1.541	1457.3
298.15 K, x2 = 0.0933	1035	1.5244	1430.7
298.15 K, x2 = 0.1658	1030.2	1.5118	1409
298.15 K, x2 = 0.267	1023.4	1.4947	1379.1
298.15 K, x2 = 0.36	1016.9	1.4794	1352.5
298.15 K, x2 = 0.4554	1010.4	1.4638	1325.4
298.15 K, x2 = 0.5605	1003	1.4472	1296.3
298.15 K, x2 = 0.6547	996.2	1.4325	1269.8
298.15 K, x2 = 0.7716	987.4	1.415	1238.2
298.15 K, x2 = 0.8473	981.4	1.4039	1217
303.15 K, x2 = 0	1036.5	1.5383	1438.9
303.15 K, x2 = 0.0933	1030.6	1.522	1412.1
303.15 K, x2 = 0.1658	1025.7	1.5094	1389.9
303.15 K, x2 = 0.267	1018.7	1.4924	1359.9
303.15 K, x2 = 0.36	1012.2	1.4771	1333.1
303.15 K, x2 = 0.4554	1005.4	1.4616	1305.8
303.15 K, x2 = 0.5605	997.9	1.445	1276.5
303.15 K, x2 = 0.6547	991	1.4304	1249.9
303.15 K, x2 = 0.7716	982.1	1.4129	1218.1
303.15 K, x2 = 0.8473	976	1.4017	1196.8
308.15 K, x2 = 0	1032	1.5357	1420.6
308.15 K, x2 = 0.0933	1026.2	1.5195	1393.5
308.15 K, x2 = 0.1658	1021.2	1.5071	1371.1
308.15 K, x2 = 0.267	1014.1	1.4902	1340.8
308.15 K, x2 = 0.36	1007.4	1.475	1313.8
308.15 K, x2 = 0.4554	1000.6	1.4596	1286.3
308.15 K, x2 = 0.5605	992.9	1.443	1256.9
308.15 K, x2 = 0.6547	985.8	1.4283	1230.1
308.15 K, x2 = 0.7716	976.8	1.4108	1198.1
308.15 K, x2 = 0.8473	970.7	1.3995	1176.7
313.15 K, x2 = 0	1027.5	1.5332	1402.4
313.15 K, x2 = 0.0933	1021.8	1.5171	1375
313.15 K, x2 = 0.1658	1016.7	1.5048	1352.4
313.15 K, x2 = 0.267	1009.5	1.488	1321.8
313.15 K, x2 = 0.36	1002.7	1.4728	1294.6
313.15 K, x2 = 0.4554	995.6	1.4574	1267
313.15 K, x2 = 0.5605	987.9	1.4409	1237.4
313.15 K, x2 = 0.6547	980.7	1.4262	1210.4
313.15 K, x2 = 0.7716	971.6	1.4087	1178.3
313.15 K, x2 = 0.8473	965.4	1.3973	1156.8
318.15 K, x2 = 0	1023	1.5307	1384.4
318.15 K, x2 = 0.0933	1017.3	1.515	1356.6
318.15 K, x2 = 0.1658	1012.2	1.5028	1333.8
318.15 K, x2 = 0.267	1004.9	1.486	1303.3
318.15 K, x2 = 0.36	997.9	1.4708	1275.8
318.15 K, x2 = 0.4554	990.7	1.4555	1248
318.15 K, x2 = 0.5605	982.8	1.439	1218.3
318.15 K, x2 = 0.6547	975.6	1.4242	1191.5
318.15 K, x2 = 0.7716	966.4	1.4067	1159
318.15 K, x2 = 0.8473	960.1	1.3952	1137.3
323.15 K, x2 = 0	1018.4	1.5282	1366.4
323.15 K, x2 = 0.0933	1012.8	1.5124	1339.3
323.15 K, x2 = 0.1658	1007.7	1.5003	1316.3
323.15 K, x2 = 0.267	1000.2	1.4836	1285.3
323.15 K, x2 = 0.36	993.1	1.4685	1257.7
323.15 K, x2 = 0.4554	985.8	1.4532	1229.8
323.15 K, x2 = 0.5605	977.7	1.4368	1199.9
323.15 K, x2 = 0.6547	970.4	1.4221	1173.1
323.15 K, x2 = 0.7716	961.1	1.4046	1140.6
323.15 K, x2 = 0.8473	954.8	1.3931	1118.8
